# Molecular target: T1, VcINDY (Vibrio cholerae, UniProt Q9KNE0)
# T1 construct: gene VC_A0025
smiles,measurement,value
O=C(O)CCC(=O)O [succinate],Km,220 µM

# Source: article PMC5413979 (Nature Communications, 2017)
